Test results from patent publication US20240043473A1, “NOOTROPIC PEPTIDES FOR TREATING LYSOSOMAL STORAGE DISEASES” (Phoenix Nest Inc., priority 2021, published 2024).
“Also recorded” adds a separate entry of the source. No end group written: not given here.

Tests used:
[1] = tested on: hippocampus CA1 pyramidal cells in hippocampal slices from Hgsnat^Geo and Hgsnat^P311L mice; assay: Evoked synaptic currents (AMPA EPSCs, NMDA EPSCs, paired pulse) by stimulating Schaffer collaterals in hippocampal slices; assay type: cell-based, mouse
Procedure: Model and Developmental time points: Hippocampal slices from Hgsnat^Geo and Hgsnat^P311L mice; P14-20.
Method: Synaptic currents (composite glutamatergic EPSCs, AMPA EPSCs and NMDA EPSCs) were evoked by stimulating Schaffer collaterals and recordings were conducted from the hippocampus CA1 pyramidal cells in hippocampal slices from Hgsnat^Geo and Hgsnat^P311L mice. Paired pulse stimulation protocol with increasing stimulus intervals was used to identify the locus of deficit.
Acute hippocampal slices were prepared as follows. Briefly, animals were anaesthetized deeply with isoflurane and decapitated. The brain was dissected carefully and transferred rapidly into an ice-cold (0-4° C.) solution containing the following (in mM): 250 sucrose, 2 KCl, 1.25 NaH2PO4, 26 NaHCO3, 7 MgSO4, 0.5 CaCl2 and 10 glucose, pH 7.4. The solution was oxygenated continuously with 95% O2 and 5% CO2, 330-340 mOsm/L. Transverse hippocampal slices (thickness, 300 μm) were cut using a vibratome (VT1000S; Leica Microsystems), transferred to a bath at room temperature (23° C.) with standard ACSF at pH 7.4 containing the following (in mM): 126 NaCl, 3 KCl, 1 NaH2PO^4, 25 NaHCO3, 2 MgSO4, 2 CaCl2), 10 glucose, continuously saturated with 95% 02 and 5% CO2 and allowed to recover for 1 h. During the experiments, slices were transferred to the recording chamber at physiological temperature (30-33° C.) continuously perfused with standard ACSF, as described above, at 2 ml/min. Pyramidal CA1 neurons from the hippocampus were identified visually using a 40× water immersion objective. Whole-cell patch-clamp recordings were obtained from single cells in voltage- or current-clamp mode and only 1 cell per slice was recorded to enable post-hoc identification and immunohistochemical processing. Recording pipettes (4-6 MΩ) were filled with a K-gluconate based solution for voltage-clamp recordings (in mM): 130 K-gluconate, 10 KCl, 5 diNa-phosphocreatine. 10 HEPES, 2.5 MgCl2, 0.5CaCl2,1 EGTA, 3 ATP-Tris, 0.4 GTP-Li, 0.3% biocytin, pH 7.2-7.4, 280-290 mOsm/L.
We further studied evoked glutamatergic EPSCs in CA1 pyramidal neurons at P14-20 by stimulating Schaffer Collateral afferents. […] The effect is aggravated at higher IPI, as both the readily releasable and reserve pools of synaptic vesicles get progressively emptied.

[2] = mouse, in vivo
Method: WT C57B16 4-month-old male mouse was dosed intranasally with 10 μl of 50 mM AVP6 in saline (5 μl/nostril). One hour after dosing, the mouse was anesthetized with sodium pentobarbital, and 500 μl of blood collected by cardiac puncture. Mouse was then sacrificed by cranial dislodgement and its brain and visceral organs extracted. Tissues and blood plasma were homogenized in acetonitrile (1:4, tissue/solvent ratio). The extracts were spiked with heavy isotope-labelled (Phe U-^13C9; U-^15N) AVP6 peptide as an internal standard, and analyzed by targeted LC-MS/MS, using parallel reaction monitoring on Orbitrap Exploris 480 instrument.
Peptide pharmaco-kinetics was determined by evaluation of AVP6 levels in CNS, blood and peripheral tissues at different time points (1-48 h) after intranasal delivery in the WT mice. The entire mouse brain was cut in four sections, rostral to caudal and assessed for biodistribution of AVP6 by targeted LC-MS/MS using parallel reaction monitoring. For quantification, samples were spiked with isotopically labeled (Phe U-^13C9; U-^15N) AVP6 peptide as an internal standard. Peptide levels were also measured in peripheral (liver, kidney, spleen) tissues and in blood to provide insights into peptide biodistribution and degradation rates.

[3] = 10 μM bath application, P14-20, Hgsnat^P311L (P304L) slices

## AVP6: N-terminally acetylated Semax, a nootropic peptide having the amino acid sequence of MEHFPGP (SEQ ID NO:1) (Ac-MEHFPGP)
[1]; [3]
  evoked AMPA current deficits: partially recovered deficits in AMPA currents; also recorded: not in AVP6-treated brain slices
  evoked NMDA current deficits: not in AVP6-treated brain slices
[1]; 10 μM, IPI 100-200 ms Hgsnat^Geo, 100-300 ms Hgsnat^P311L
  paired pulse (PPF/PPR) deficits at lower inter-pulse intervals: significantly recovered PPF deficits; also recorded: partially rescued deficits in the paired pulse stimulation; also recorded: is restored by treatment with AVP6
[1]; 10 μM, IPI 400 and 500 ms
  paired pulse (PPF) deficits at higher inter-pulse intervals: not at higher (400 and 500 ms) IPI
[1]; 50 μM
  recording lost (suggesting neurotoxicity): 5 of 11
[1]; 50 μM, Hgsnat^P304L slices
  PPF deficits at 100, 200, 300 and 400 ms IPI: PPF deficits were rescued
[2]
  time the peptide level in the brain remained above the estimated acting concentration: 17 h
